Patent US6524595B1, “Cyclodextrins preferentially substituted on their primary face by acid or amine functions” (priority 2000, dated 2003)

Legend:
skin of rabbits = assay: Evaluation of primary dermal irritation in the rabbit; format: in vivo; conditions: 10% in a 0.5% xanthan gel, undiluted, 0.5 ml
Procedure: Toxicological tests were carried out on the compound obtained in example 2a incorporated in an amount of 10% into a 0.5% xanthan gel, by occular evaluation in the rabbit, by a study of the absence of abnormal toxicity by a single oral administration to the rat and by a sensitization power study in the guinea-pig.
At the same time, a toxicological study was carried out under the same experimental conditions on commercial β-cyclodextrin incorporated in an amount of 10% into a 0.5% xanthan gel.
The preparations described above were applied undiluted in a dose of 0.5 ml to the skin of 3 rabbits using the method recommended by the OECD directive regarding the study of “The acute dermal irritant/corrosive effect”.
The products were classified in accordance with the criteria in the order of Feb. 1, 1982 published in the JORF [Official journal of the French Republic] on Feb. 2, 1982.

[1] = Aspect of the solution obtained / nanoparticle formation; format: physicochemical
Procedure: The solution was then added at a constant rate (1 ml/s) to distilled water (450 ml) with stirring to form a milky solution. […] The procedure of example 15 was followed but instead of using the compound obtained in example 2, a commercial β-cyclodextrin with an identical molar concentration was used.

[2] = Cutaneous penetration test of caffeine on Franz cell (diffusion, release, storage); format: in vitro ADME, rat; conditions: for average quantity of caffeine per unit surface diffused into the receptor chamber: 2 g deposited, 2.54 cm^2 Franz cell, PBS receptor
Procedure: The receptor chamber was constituted by a PBS buffer and antibiotics. Diffusion was monitored over time by sampling from the receptor chamber and analysis by high performance liquid chromatography. […] After rinsing the biopsy used in the diffusion study, it was kept in the Franz cell for 24 hours without donors. The quantity of active ingredient liberated in the PBS buffer was then analyzed by HPLC, to study the ability of the skin to temporarily retain the test solution (Release study).

[3] = Vitamin E determination by HPLC (fluorescence); format: physicochemical
Procedure: The vitamin E content was determined by HPLC (fluorescence) and evaluated for each sample: […]

[4] = Cutaneous penetration study of vitamin E on Franz cell (diffusion, release, storage); format: in vitro ADME, rat; conditions: for percentage of vitamin E diffused: 2 g deposited, 2.54 cm^2 Franz cell, ethoxydiglycol receptor
Procedure: Cutaneous penetration studies were carried out on products 26-a, 26-b, 26-c and 26-d from example 26. […] The receptor chamber was constituted by ethoxydiglycol and antibiotics. Diffusion was monitored over time by sampling from the receptor chamber then HPLC analysis (fluorescence). […] After rinsing the biopsy used in the diffusion study, it was kept in the Franz cell for 24 hours without donors. The quantity of active ingredient liberated in the ethoxydiglycol was then analyzed by HPLC, underlining the ability of the skin to temporarily retain the test solution (release study).

[5] = biopsy in ethanolic solution 24 hours after release study
[6] = rinsed biopsy kept in Franz cell 24 hours without donors

Molecule: OC[C@H]1O[C@@H]2O[C@H]3[C@H](O)[C@@H](O)[C@@H](O[C@H]4[C@H](O)[C@@H](O)[C@@H](O[C@H]5[C@H](O)[C@@H](O)[C@@H](O[C@H]6[C@H](O)[C@@H](O)[C@@H](O[C@H]7[C@H](O)[C@@H](O)[C@@H](O[C@H]8[C@H](O)[C@@H](O)[C@@H](O[C@H]1[C@H](O)[C@H]2O)O[C@@H]8CO)O[C@@H]7CO)O[C@@H]6CO)O[C@@H]5CO)O[C@@H]4CO)O[C@@H]3CO [commercial β-cyclodextrin, β-cyclodextrin]
- primary dermal irritation classification (skin of rabbits): slight irritant for the skin
- solubility in water (in words) [1]: soluble in water
- nanoparticle formation (in words) ([1]; nanoparticle protocol with commercial β-cyclodextrin at identical molar concentration): no nanoparticles are formed

Molecule: Cn1c(=O)c2c(ncn2C)n(C)c1=O [Caffeine free, caffeine]
- average quantity of caffeine per unit surface diffused into the receptor chamber ([2]; 0 hours): 0 μg/cm^2
- average quantity of caffeine per unit surface diffused into the receptor chamber ([2]; 24 hours): 1783 μg/cm^2
- Storage (caffeine still present in the skin) [2, 5]: 26.57 ± 6.55 μg/cm2
- Release (caffeine liberated in the PBS buffer) [2, 6]: 286.8 ± 28.36 μg/cm2

Molecule: Cc1c(C)c2c(c(C)c1O)CC[C@@](C)(CCC[C@H](C)CCC[C@H](C)CCCC(C)C)O2 [Example 26-d, vitamin E]
- Vitamin E determination (vitamin E content of sample) ([3]; 0.1% of vitamin E used): 0.0943%
- percentage of vitamin E diffused ([4]; 0 hours): 0
- percentage of vitamin E diffused ([4]; 48 hours): 10.32%
- Storage (vitamin E still present in the skin) [4, 5]: 1.74 ± 0.24 % diffusion
- Release (vitamin E liberated in the ethoxydiglycol) [4, 6]: 3.33 ± 0.9 % diffusion

Molecule: (Lauroate)y-β-cyclodextrin [Example 2a]
- primary dermal irritation classification (skin of rabbits): non irritant to the skin
- encapsulation of vitamin E (in words) [3]: encapsulated the vitamin E highly effectively
